Assay results published in patent US8791266B2, “Thyroid hormone β receptor agonist” (Mitsubishi Tanabe Pharma Corporation, priority 2009, dated 2014).

Key:
[1] = molecular target: T1, Human Thyroid Hormone Receptor β1 (TRβ1) (Homo sapiens, UniProt P10828); test: Transcription activation test of human thyroid hormone receptor β1 (luciferase reporter in 293T cells); assay type: cell-based; conditions: EC50 of transcription activation on TRβ1, 293T cells, luciferase activity after 24 hr; read-out: TRβ
T1 construct: expressed in transfected cells; host or cells: 293T cells
T1 sequence (P10828 1-461): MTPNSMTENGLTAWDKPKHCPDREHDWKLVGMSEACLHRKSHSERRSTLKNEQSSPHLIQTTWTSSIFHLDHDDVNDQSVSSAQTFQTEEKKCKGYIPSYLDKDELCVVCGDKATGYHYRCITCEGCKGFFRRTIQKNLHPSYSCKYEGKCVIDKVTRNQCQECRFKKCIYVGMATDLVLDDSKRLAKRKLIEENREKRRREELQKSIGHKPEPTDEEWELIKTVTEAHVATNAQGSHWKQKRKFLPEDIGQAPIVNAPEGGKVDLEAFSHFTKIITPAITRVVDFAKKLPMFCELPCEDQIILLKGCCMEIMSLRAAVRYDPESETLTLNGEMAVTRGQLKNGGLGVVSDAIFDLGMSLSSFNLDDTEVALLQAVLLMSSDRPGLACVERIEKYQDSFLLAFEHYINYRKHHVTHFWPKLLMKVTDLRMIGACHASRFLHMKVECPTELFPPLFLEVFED
Procedure, shortened: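 293T cells transiently co-transfected with human TRα1 or TRβ1 expression vector plus thyroid hormone response element firefly luciferase reporter, switched to 0.1% charcoal/dextran-treated FBS medium. Luciferase measured 24 h after compound; EC50 and maximal activity expressed relative to T3 maximum as 100.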

[2] = molecular target: T2, Human Thyroid Hormone Receptor α1 (TRα1) (Homo sapiens, UniProt P10827); test: Transcription activation test of human thyroid hormone receptor α1 (luciferase reporter in 293T cells); assay type: cell-based; conditions: ratio TRα/TRβ of the transcription activation EC50 values
T2 construct: expressed in transfected cells; host or cells: 293T cells
T2 sequence (P10827 1-410 isoform P10827-2): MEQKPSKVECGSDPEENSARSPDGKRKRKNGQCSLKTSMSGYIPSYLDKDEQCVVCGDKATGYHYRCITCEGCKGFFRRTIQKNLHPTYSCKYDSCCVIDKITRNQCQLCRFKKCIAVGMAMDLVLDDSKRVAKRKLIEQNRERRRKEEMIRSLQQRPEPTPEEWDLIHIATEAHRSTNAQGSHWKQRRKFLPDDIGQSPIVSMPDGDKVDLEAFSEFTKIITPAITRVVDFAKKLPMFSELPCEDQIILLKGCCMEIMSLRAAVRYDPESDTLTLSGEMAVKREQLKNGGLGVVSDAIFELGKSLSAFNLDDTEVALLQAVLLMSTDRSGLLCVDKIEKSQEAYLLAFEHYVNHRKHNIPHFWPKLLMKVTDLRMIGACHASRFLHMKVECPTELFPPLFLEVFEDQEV

Row | EC50 [1] | selectivity (TRα/TRβ) [2] | SMILES
1 | 3 nM | A (5<(TRα/TRβ)) | O=C(O)COc1cc(Br)c(Cc2ccc(O)c(-c3ccccc3)n2)c(Br)c1F [Example 256, [3,5-dibromo-2-fluoro-4-(5-hydroxy-6-phenyl-pyridin-2-ylmethyl)-phenoxy]acetic acid]
2 | 1 nM | B (2<(TRα/TRβ)<5) | COCC1(c2nc(Cc3c(C)cc(OCc4noc(=O)[nH]4)c(F)c3C)ccc2O)CCCCC1 [Example 268, 3-{[2-fluoro-4-({5-hydroxy-6-[1-(methoxymethyl)cyclohexyl]pyridin-2-yl}methyl)-3,5-dimethylphenoxy]methyl}-1,2,4-oxadiazol-5(4H)-one]
3 | 0.7 nM | A (5<(TRα/TRβ)) | CCc1cc(OCC(=O)O)c(C)c(C)c1Cc1ccc(O)c(-c2cccc(F)c2)n1 [Example 269, (5-ethyl-4-{[6-(3-fluorophenyl)-5-hydroxypyridin-2-yl]methyl}-2,3-dimethylphenoxy)acetic acid]
